Experimental data as given in patent US8420686B2, “Linked diimidazole antivirals” (Enanta Pharmaceuticals, Inc., priority 2009, dated 2013).

Test system: HCV 1b genotype replicon
Assay: HCV genotype-1b replicon assay (qRT-PCR or luciferase)
Assay type: cell-based
Conditions: Hepatitis C virus; HCV 1b replicon cell lines (SGR 11-7 or Huh-luc/neo-ET); qRT-PCR or luciferase readout; read-out: Genotype-1b replicon EC50 Range
Source text: HCV replicon cell lines (kindly provided by R. Bartenschlager) isolated from colonies as described by Lohman et al. (Lohman et al. (1999) Science 285: 110-113, expressly incorporated by reference in its entirety) and used for all experiments. The HCV replicon has the nucleic acid sequence set forth in EMBL Accession No.: AJ242651, the coding sequence of which is from nucleotides 1801 to 8406.
The coding sequence of the published HCV replicon was synthesized and subsequently assembled in a modified plasmid pBR322 (Promega, Madison, Wis.) using standard molecular biology techniques. One replicon cell line (“SGR 11-7”) stably expresses HCV replicon RNA which consists of (i) the HCV 5′UTR fused to the first 12 amino acids of the capsid protein, (ii) the neomycin phosphotransferase gene (neo), (iii) the IRES from encephalomyocarditis virus (EMCV), and (iv) HCV NS2 to NS5B genes and the HCV 3′UTR. […]
EC50 values of single agent compounds and combinations were determined by HCV RNA detection using quantitative RT-PCR, according to the manufacturer's instructions, with a TaqMan® One-Step RT-PCR Master Mix Reagents Kit (Cat#AB 4309169, Applied Biosystems) on an ABI Model 7500 thermocycler. The TaqMan primers used for detecting and quantifying HCV RNA were obtained from Integrated DNA Technologies. HCV RNA was normalized to GAPDH RNA levels in drug-treated cells, which is detected and quantified using the Human GAPDH Endogenous Control Mix (Applied Biosystems, AB 4310884E). […] Chemical agent cytotoxicity is evaluated using an MTS assay according to the manufacturer's directions (Promega). […]

SMILES | EC50
CN(C)C(C(=O)N1CCC[C@H]1c1ncc(-c2ccc3cc4cc(-c5cnc([C@@H]6CCCN6C(=O)[C@@H](c6ccccc6)N(C)C)[nH]5)ccc4cc3c2)[nH]1)c1ccccc1 (stereo partly drawn) [Example 1-b] | < 1 nM
CN(C)[C@@H](C(=O)N1CCC[C@H]1c1ncc(-c2ccc(Oc3cccc(-c4cnc([C@@H]5CCCN5C(=O)[C@@H](c5ccccc5)N(C)C)[nH]4)c3)cc2)[nH]1)c1ccccc1 [Example 1-f] | < 1 nM
CN(C)[C@@H](C(=O)N1CCC[C@H]1c1ncc(-c2ccc3c(c2)Cc2cc(-c4cnc([C@@H]5CCCN5C(=O)[C@@H](c5ccccc5)N(C)C)[nH]4)ccc2-3)[nH]1)c1ccccc1 [Example 2] | < 1 nM
